Experimental data published in US7919300B2, “Glucose isomerase mutants” (priority 2004, dated 2011).
Like-named read-outs stand apart in the source and are kept apart here.

Biological target: Thermoanaerobacterium saccharolyticum glucose isomerase (ATCC 49915), wild-type, SEQ ID NO.: 2 (Thermoanaerobacterium saccharolyticum, UniProt P30435)
Conditions: pH 6.5, 20 mM sodium phosphate, 250 μM CoCl2, 5 mM MgCl2, 10 minutes
Description: The isolation and purification of wild-type glucose isomerase were based on Lee et al., (Journal of General Microbiology, 139:1227-1234, 1993) with modifications. pGEMT-TS transformed E. coli HB101 cells were incubated on 1% MacConkey agar plate containing 1% xylose and 50 mg/L ampicillin at 37° C. for 36 hours. A single colony from the plate was inoculated and cultivated in 5 mL LB supplemented with 50 mg/L ampicillin for 16 hours. The bacterial cells were pelleted and resuspended in 1 ml 20 mM phosphate buffer (pH 6.5), and CoCl2 and MgCl2 were added to final concentration of 250 μM and 5 mM, respectively. The cells were disrupted by using ultrasonication and centrifuged at 17,800 g for 15 minutes at 10° C. to collect the supernatant as crude glucose isomerase. The crude enzyme was heated at 80° C. for 10 minutes and centrifuged again at 17,800 g for 15 minutes at 10° C. to remove the precipitation.
Ninety μl of the stock solution was mixed with 10 μl of the glucose isomerase prepared as described in Example 9, incubated at 80° C. for 10 minutes and quenched on ice immediately. The fructose formed was measured by the cysteine-carbazole method (Dische et al., J. Biol. Chem, 192:583-587, 1951; and Nakamura, Agr. Biol. Chem. 32:701-706, 1968). The protein concentration was determined using Coomassie® Plus Protein Assay Reagent Kit (Pierce, USA) and SDD-PAGE, with BSA as the standard.

Chain of Thermoanaerobacterium saccharolyticum glucose isomerase (ATCC 49915), wild-type, SEQ ID NO.: 2 (P30435 whole entry R81A): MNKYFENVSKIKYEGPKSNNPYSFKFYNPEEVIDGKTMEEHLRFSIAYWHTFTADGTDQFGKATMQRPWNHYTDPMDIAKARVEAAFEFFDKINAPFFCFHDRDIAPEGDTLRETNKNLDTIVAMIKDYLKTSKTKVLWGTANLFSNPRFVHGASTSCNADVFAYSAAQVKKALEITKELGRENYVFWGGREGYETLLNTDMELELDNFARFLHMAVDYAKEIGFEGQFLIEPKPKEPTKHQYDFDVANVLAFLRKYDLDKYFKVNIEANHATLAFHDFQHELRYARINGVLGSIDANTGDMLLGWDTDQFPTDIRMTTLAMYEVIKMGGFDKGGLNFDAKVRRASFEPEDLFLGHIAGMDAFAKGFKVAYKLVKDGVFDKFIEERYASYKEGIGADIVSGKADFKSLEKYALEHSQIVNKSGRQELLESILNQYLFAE

`OC[C@H]1OC(O)[C@H](O)[C@@H](O)[C@@H]1O` (stereo partly drawn) [D-glucose] showed a Kcat (65° C.) of 5.742 s⁻¹, a Kcat/Km (65° C.) of 41.7 M⁻¹ s⁻¹ and a Kcat (80° C.) of 14.68 s⁻¹. For the same compound, the Kcat/Km (80° C.) was 98.3 M⁻¹ s⁻¹.
